Source: the NIST ThermoML archive (doi:10.1021/acs.jced.9b00846)

Settings: Liquid, Vibrating tube method

CCC(C)CC [3-methylpentane]
Settings | mass density [kg/m3]
283.15 K, 96 kPa | 673.7
283.15 K, 4984 kPa | 678.4
283.15 K, 9983 kPa | 682.9
283.15 K, 14976 kPa | 687.2
283.15 K, 20022 kPa | 691.2
283.15 K, 25054 kPa | 695
283.15 K, 29951 kPa | 698.6
283.15 K, 35044 kPa | 702.1
283.15 K, 40019 kPa | 705.4
283.15 K, 45032 kPa | 708.6
283.15 K, 50012 kPa | 711.7
283.15 K, 54940 kPa | 714.6
283.15 K, 59937 kPa | 717.5
283.15 K, 64969 kPa | 720.3
288.15 K, 123 kPa | 669.3
288.15 K, 4981 kPa | 674.1
288.15 K, 10014 kPa | 678.9
288.15 K, 14991 kPa | 683.2
288.15 K, 19942 kPa | 687.3
288.15 K, 25033 kPa | 691.3
288.15 K, 29989 kPa | 695
288.15 K, 35037 kPa | 698.6
288.15 K, 39987 kPa | 701.9
288.15 K, 45029 kPa | 705.2
288.15 K, 50061 kPa | 708.4
288.15 K, 54941 kPa | 711.3
288.15 K, 59951 kPa | 714.3
288.15 K, 65035 kPa | 717.1
293.15 K, 98 kPa | 664.7
293.15 K, 4913 kPa | 669.7
293.15 K, 9979 kPa | 674.6
293.15 K, 14916 kPa | 679.1
293.15 K, 19985 kPa | 683.5
293.15 K, 24964 kPa | 687.5
293.15 K, 30011 kPa | 691.3
293.15 K, 34951 kPa | 694.9
293.15 K, 40003 kPa | 698.4
293.15 K, 45015 kPa | 701.8
293.15 K, 49957 kPa | 705
293.15 K, 54949 kPa | 708.1
293.15 K, 60008 kPa | 711.1
293.15 K, 65001 kPa | 714
298.15 K, 123 kPa | 660.1
298.15 K, 4936 kPa | 665.3
298.15 K, 9999 kPa | 670.4
298.15 K, 15031 kPa | 675.1
298.15 K, 20036 kPa | 679.5
298.15 K, 25016 kPa | 683.7
298.15 K, 29992 kPa | 687.6
298.15 K, 34973 kPa | 691.3
298.15 K, 40043 kPa | 694.9
298.15 K, 45008 kPa | 698.3
298.15 K, 49987 kPa | 701.6
298.15 K, 54938 kPa | 704.8
298.15 K, 59982 kPa | 707.8
298.15 K, 65001 kPa | 710.8
303.15 K, 106 kPa | 655.4
303.15 K, 4970 kPa | 660.9
303.15 K, 9996 kPa | 666.1
303.15 K, 15043 kPa | 671.1
303.15 K, 20006 kPa | 675.6
303.15 K, 25024 kPa | 679.9
303.15 K, 29956 kPa | 683.9
303.15 K, 34990 kPa | 687.7
303.15 K, 39963 kPa | 691.4
303.15 K, 44991 kPa | 694.9
303.15 K, 49940 kPa | 698.2
303.15 K, 54932 kPa | 701.5
303.15 K, 59961 kPa | 704.6
303.15 K, 65012 kPa | 707.7
308.15 K, 109 kPa | 650.6
308.15 K, 4967 kPa | 656.3
308.15 K, 10001 kPa | 661.8
308.15 K, 14988 kPa | 666.8
308.15 K, 19945 kPa | 671.5
308.15 K, 25037 kPa | 676
308.15 K, 29968 kPa | 680.1
308.15 K, 35020 kPa | 684
308.15 K, 39963 kPa | 687.8
308.15 K, 44985 kPa | 691.4
308.15 K, 49992 kPa | 694.8
308.15 K, 54921 kPa | 698.1
308.15 K, 60008 kPa | 701.4
308.15 K, 64999 kPa | 704.4
313.15 K, 117 kPa | 645.9
313.15 K, 4981 kPa | 651.9
313.15 K, 9993 kPa | 657.5
313.15 K, 15145 kPa | 662.9
313.15 K, 20027 kPa | 667.6
313.15 K, 25088 kPa | 672.2
313.15 K, 30012 kPa | 676.4
313.15 K, 35003 kPa | 680.4
313.15 K, 40042 kPa | 684.3
313.15 K, 45054 kPa | 688
313.15 K, 49996 kPa | 691.5
313.15 K, 54926 kPa | 694.8
313.15 K, 60053 kPa | 698.2
313.15 K, 65063 kPa | 701.3
318.15 K, 107 kPa | 641.1
318.15 K, 4955 kPa | 647.4
318.15 K, 9991 kPa | 653.3
318.15 K, 15039 kPa | 658.8
318.15 K, 20021 kPa | 663.7
318.15 K, 25060 kPa | 668.4
318.15 K, 29991 kPa | 672.8
318.15 K, 34997 kPa | 676.9
318.15 K, 40044 kPa | 680.9
318.15 K, 44936 kPa | 684.6
318.15 K, 49998 kPa | 688.3
318.15 K, 55010 kPa | 691.7
318.15 K, 59996 kPa | 695.1
318.15 K, 65008 kPa | 698.3
323.15 K, 106 kPa | 636.3
323.15 K, 4980 kPa | 642.9
323.15 K, 9966 kPa | 649
323.15 K, 15009 kPa | 654.6
323.15 K, 20016 kPa | 659.8
323.15 K, 24987 kPa | 664.6
323.15 K, 30019 kPa | 669.1
323.15 K, 34996 kPa | 673.3
323.15 K, 40041 kPa | 677.4
323.15 K, 44988 kPa | 681.2
323.15 K, 49949 kPa | 684.9
323.15 K, 55004 kPa | 688.5
323.15 K, 59997 kPa | 691.8
323.15 K, 64995 kPa | 695.1
328.15 K, 4974 kPa | 638.3
328.15 K, 9983 kPa | 644.6
328.15 K, 14977 kPa | 650.4
328.15 K, 20010 kPa | 655.8
328.15 K, 25021 kPa | 660.8
328.15 K, 29956 kPa | 665.4
328.15 K, 34961 kPa | 669.7
328.15 K, 40039 kPa | 673.9
328.15 K, 45005 kPa | 677.9
328.15 K, 50036 kPa | 681.7
328.15 K, 54981 kPa | 685.2
328.15 K, 60023 kPa | 688.7
328.15 K, 65018 kPa | 692
333.15 K, 4969 kPa | 633.7
333.15 K, 9932 kPa | 640.2
333.15 K, 15031 kPa | 646.3
333.15 K, 19959 kPa | 651.8
333.15 K, 25022 kPa | 657
333.15 K, 29983 kPa | 661.7
333.15 K, 34948 kPa | 666.1
333.15 K, 39982 kPa | 670.4
333.15 K, 45015 kPa | 674.5
333.15 K, 49968 kPa | 678.3
333.15 K, 54981 kPa | 682
333.15 K, 59935 kPa | 685.5
333.15 K, 65077 kPa | 689
338.15 K, 5021 kPa | 629
338.15 K, 10019 kPa | 635.9
338.15 K, 15009 kPa | 642.1
338.15 K, 20030 kPa | 647.8
338.15 K, 25053 kPa | 653.1
338.15 K, 29999 kPa | 658
338.15 K, 34951 kPa | 662.6
338.15 K, 39974 kPa | 667
338.15 K, 45053 kPa | 671.2
338.15 K, 49966 kPa | 675.1
338.15 K, 54970 kPa | 678.8
338.15 K, 59984 kPa | 682.5
338.15 K, 65015 kPa | 685.9
343.15 K, 5000 kPa | 624.2
343.15 K, 10002 kPa | 631.4
343.15 K, 15025 kPa | 637.8
343.15 K, 20016 kPa | 643.7
343.15 K, 24973 kPa | 649.1
343.15 K, 29947 kPa | 654.2
343.15 K, 34977 kPa | 658.9
343.15 K, 39962 kPa | 663.4
343.15 K, 44924 kPa | 667.6
343.15 K, 50034 kPa | 671.8
343.15 K, 54984 kPa | 675.6
343.15 K, 59973 kPa | 679.3
343.15 K, 65018 kPa | 682.9
348.15 K, 4999 kPa | 619.4
348.15 K, 10005 kPa | 626.9
348.15 K, 15001 kPa | 633.6
348.15 K, 19997 kPa | 639.7
348.15 K, 24983 kPa | 645.3
348.15 K, 30044 kPa | 650.6
348.15 K, 34962 kPa | 655.3
348.15 K, 40008 kPa | 660
348.15 K, 44956 kPa | 664.3
348.15 K, 50006 kPa | 668.4
348.15 K, 54987 kPa | 672.4
348.15 K, 59977 kPa | 676.1
348.15 K, 65005 kPa | 679.8
353.15 K, 4969 kPa | 614.4
353.15 K, 9927 kPa | 622.1
353.15 K, 14990 kPa | 629.2
353.15 K, 20018 kPa | 635.5
353.15 K, 25032 kPa | 641.3
353.15 K, 29979 kPa | 646.6
353.15 K, 34952 kPa | 651.6
353.15 K, 39962 kPa | 656.4
353.15 K, 44947 kPa | 660.8
353.15 K, 49917 kPa | 665
353.15 K, 55013 kPa | 669.1
353.15 K, 59927 kPa | 672.9
353.15 K, 65026 kPa | 676.6
358.15 K, 4945 kPa | 609.3
358.15 K, 9952 kPa | 617.5
358.15 K, 15000 kPa | 624.7
358.15 K, 20004 kPa | 631.3
358.15 K, 25020 kPa | 637.3
358.15 K, 29990 kPa | 642.7
358.15 K, 34993 kPa | 647.8
358.15 K, 40000 kPa | 652.7
358.15 K, 44971 kPa | 657.2
358.15 K, 49932 kPa | 661.5
358.15 K, 54965 kPa | 665.6
358.15 K, 59980 kPa | 669.6
358.15 K, 65056 kPa | 673.4
363.15 K, 5004 kPa | 604.2
363.15 K, 9965 kPa | 612.8
363.15 K, 15052 kPa | 620.5
363.15 K, 19925 kPa | 627.1
363.15 K, 25013 kPa | 633.3
363.15 K, 29929 kPa | 638.9
363.15 K, 35008 kPa | 644.2
363.15 K, 39979 kPa | 649.1
363.15 K, 45062 kPa | 653.9
363.15 K, 50011 kPa | 658.2
363.15 K, 54995 kPa | 662.4
363.15 K, 60039 kPa | 666.4
363.15 K, 65041 kPa | 670.2
